In patent US12403117B2, “Stable pharmaceutical composition containing non-steroidal anti-inflammatory drug derivative” (ZHEJIANG YUEJIA PHARMACEUTICALS CO., LTD, priority 2017, dated 2025):
Several values for one entry are separate records, joined by “and”; a condition that tells them apart may be missing. Identical values can stand only once. One block for each compound: values may come before it.

Tests used:
Assay type in all cases: physicochemical
[1] = Repose angle by injection method
Description: The “repose angle” formed by stacking the powders or particles reflects its fluidity. The term “repose angle” generally refers to the maximum angle formed by the free slope of the layer of the stacked powders or particles and the horizontal plane. The smaller the repose angle, the smaller the friction between the powders or particles, and the better the fluidity. Better fluidity is more convenient for dissolution and use of the powders or particles. Methods for measuring the repose angle are well known to those skilled in the art. The repose angle is measured by an “injection method” in the examples of the invention, that is, the particles flow out of the funnel and fall on the plane to form a cone, and the base angle is the repose angle.

[2] = Stability of aqueous solution of 2-(diethylamino)-ethyl-2-(4-isobutylphenyl) propionate hydrochloride at 25° C.±2° C. (HPLC); conditions: 10 g in 50 mL sterile water
Experimental: 10 g of 2-(diethylamino)-ethyl-2-(4-isobutylphenyl) propionate hydrochloride prepared in Example 5 was dissolved in 50 mL of sterile water and placed at 25° C.±2° C. Samples were taken on day 0, week 1, week 2, week 3 and week 4 to detect the contents of the main drug and specific impurities (ibuprofen), wherein the content of the main drug and specific impurities were detected by high-performance liquid chromatography (area normalization). The conditions of HPLC were as follows: • Column: Inertsil ODS-3 (250×4.6 mm, 5 μm) or equivalent • Flow rate: 1.0 ml/min • Column temperature: 33° C. • Wavelength: 264 nm • Injection volume: 10 μl • Mobile phase: (3.065 g sodium acetate+150 ml acetic acid+375 ml water): acetonitrile (35:65).

[3] = Acidity: pH value of the aqueous solution; conditions: 25 ± 0.5° C.
Dissociation constant = experiment: Dissociation constant
Description: (§1) The physical and chemical properties of the synthesized crystals of 2-(diethylamino)-ethyl-2-acetoxybenzoate hydrochloride are shown in Table 1.

[4] = Solubility (physical and chemical properties, Table 1)
Description: as §1

[5] = Stability of aqueous solution of 2-(diethylamino)-ethyl-2-acetoxybenzoate hydrochloride at 2-8° C. (HPLC); conditions: 5 g in 50 mL sterile water
Experimental: 5 g of 2-(diethylamino)-ethyl-2-acetoxybenzoate hydrochloride prepared in Example 1 was dissolved in 50 mL of sterile water and placed at 2-8° C. Samples were taken on day 0, month 0.5, month 1, month 2 and month 3 to detect the contents of the main drug and specific impurities (salicylic acid-(2-diethylaminoethyl ester) hydrochloride, acetylsalicylic acid, salicylic acid) and related substances, wherein the content of the main drug and specific impurities were detected by high-performance liquid chromatography (external standard method), and the related substances were detected by high-performance liquid chromatography (principal component self-control method without correction factors). The conditions of HPLC were as follows: • Column: Inertsil ODS-3 (250×4.6 mm, 5 μm) or equivalent • Flow rate: 1.0 ml/min • Column temperature: 33° C. • Wavelength: 276 nm, 303 nm • Injection volume: 10 μl • Mobile phase: water (15 ml of triethylamine+3.5 ml of 10% tetrabutylammonium hydroxide, adding water to 1000 ml): methanol: glacial acetic acid (63:27:10).

- Repose angle [1]: 40 °
- Ibuprofen (impurity) ([2]; week 0): Not detected
- Main Drug ([2]; week 0): 100.00%
- Unknown peak ([2]; week 0): Not detected
- Ibuprofen (impurity) ([2]; week 1): 0.39%
- Main Drug ([2]; week 1): 99.51%
- Unknown peak ([2]; week 1): 0.10%
- Ibuprofen (impurity) ([2]; week 2): 1.69%
- Main Drug ([2]; week 2): 98.12%
- Unknown peak ([2]; week 2): 0.19%
- Ibuprofen (impurity) ([2]; week 3): 4.04%
- Main Drug ([2]; week 3): 95.83%
- Unknown peak ([2]; week 3): 0.13%
- Unknown peak ([2]; week 4): 0.21%
SMILES: CCN(CC)CCOC(=O)C(C)c1ccc(CC(C)C)cc1.Cl (stereo not shown) [2-(diethylamino)-ethyl-2-(4-isobutylphenyl) propionate hydrochloride]

SMILES: CCN(CC)CCOC(=O)c1ccccc1OC(C)=O.Cl [2-(diethylamino)-ethyl-2-acetoxybenzoate hydrochloride]
- Acidity: pH value of the 2% aqueous solution [3]: product at 25 ± 0.5 °C is 4.0-6.0
- Repose angle [1]: 42°
- Dissociation constant (Dissociation constant): 8.82
- Solubility ([4]; in acetone): slightly soluble
- Solubility ([4]; in ethyl acetate and ether): insoluble
- Solubility ([4]; in water): extremely soluble
- Main Drug ([5]; month 0): 99.48%
- Salicylic acid (impurity) ([5]; month 0): 0.0028%
- Salicylic acid-(2-diethylaminoethyl ester) hydrochloride (impurity) ([5]; month 0): 0.51%
- Main Drug ([5]; month 0.5): 99.32%
- Salicylic acid (impurity) ([5]; month 0.5): 0.0035%
- Salicylic acid-(2-diethylaminoethyl ester) hydrochloride (impurity) ([5]; month 0.5): 0.67%
- Acetylsalicylic acid (impurity) ([5]; month 1): 0.018%
- Main Drug ([5]; month 1): 97.59%
- Salicylic acid (impurity) ([5]; month 1): 0.0044%
- Salicylic acid-(2-diethylaminoethyl ester) hydrochloride (impurity) ([5]; month 1): 2.38%
- Acetylsalicylic acid (impurity) ([5]; month 2): 0.033%
- Main Drug ([5]; month 2): 94.86%
- Salicylic acid (impurity) ([5]; month 2): 0.012%
- Salicylic acid-(2-diethylaminoethyl ester) hydrochloride (impurity) ([5]; month 2): 5.09%
- Acetylsalicylic acid (impurity) ([5]; month 3): 0.042%
- Salicylic acid (impurity) ([5]; month 3): 0.049%
- Main Drug ([5]; month 3, hydrochloride): 86% and 86.55%
